According to patent publication EP0099121A2, “Pharmaceutical compositions” (Bristol-Myers Company, priority 1982, dated 1984):
Where two headings read alike, the source gives them in different places. Where a SMILES comes first, the peptide text is derived from it. [ ]: non-standard residue; d: D form. The star is where a group is joined. Sta = CC(C)C[C@H](N)[C@@H](O)CC(=O)O; Isovaleryl = CC(C)CC(=O)*

Columns and labels:
pepsin [1] = test: 18 hour pylorus ligated rat; format: in vivo; conditions: 20 mg/kg po
[2] = all animal species studied; cited from earlier work
[3] = daily oral doses of 700 mg for up to three months; cited from earlier work
pepsin [4] = conditions: patients with ulcer dyspepsia; cited from earlier work
[5] = cited from earlier work
stomach ulcers = conditions: rat, in vivo; cited from earlier work
pepsin [6] = conditions: in the feed at >50 ppm; cited from earlier work
duodenal ulcer = conditions: 100 mg doses seven times a day, cited from earlier work
gastric ulcer = conditions: 100 mg doses seven times a day, versus placebo; cited from earlier work
pepsin [7] = conditions: cited from earlier work
pepsin [8] = conditions: duodenal ulcer; cited from earlier work

CC(C)CC(=O)N[C@H](C(=O)N[C@H](C(=O)N[C@@H](CC(C)C)[C@@H](O)CC(=O)N[C@@H](C)C(=O)N[C@@H](CC(C)C)[C@@H](O)CC(=O)O)C(C)C)C(C)C [pepstatin] (Isovaleryl-VV[Sta]A[Sta]-OH)
pepsin activity (pepsin [1]): completely inhibited | ulcer formation (pepsin [1]): antagonized ulcer formation | LD50 [2]: exceeded 3000 mg/kg | side effects [3]: no side effects were observed | effect on the gastric acidity (pepsin [4]): no effect | gastric peptic activity (pepsin [4]): inhibits gastric peptic activity | excreted in the feces ([5]; animal studies, oral, within 72 hours): more than 90% | absorption upon oral administration [5]: essentially unabsorbed | absorption upon oral administration ([5]; listed as Pepstatin): only poorly absorbed | formation of stomach ulcers (stomach ulcers): prevent the formation of stomach ulcers | occurrence of ulcers (pepsin [6]): prevented the occurrence of ulcers | pepsin activity in the gastric juice (pepsin [6]): inhibited pepsin activity | healing or symptomatology of duodenal ulcer (duodenal ulcer; versus placebo): no significant difference between pepstatin and placebo | duration of inhibition of peptic activity of gastric juice (duodenal ulcer): 18 hours a day | healing or symptomatology of gastric ulcer (gastric ulcer): not able to detect any influence | duration of pepsin suppression (pepsin [7]): about 1 hours | benefit in patients with duodenal ulcer (pepsin [8]): ineffective
